The text below walks through data of publication PMC3257521 (Biochemistry, 2011).

Values joined by “and” are separate entries in the source; they are usually repeats but may differ in a detail not shown here. Equal values may be shown once.

Data set [1] concerns the target T1, Pnc1 (Saccharomyces cerevisiae, UniProt P53184). The class given is biochemical, S. cerevisiae.
Data set [2] is described as follows: Literature hydrolysis in basic solution. The class given is physicochemical. The conditions noted are these: 25 °C in 0.1 N NaOH.
The conditions of data set [3]: 25 °C in 0.1 N NaOH; cited from earlier work.
Data set [4] deals with T1, Pnc1. Kind of data set: Pnc1 competitive inhibition. The class given is biochemical, S. cerevisiae.
Data set [5] has as its target nicotinamidase from M. lysodeikticus. The following applies: cited from earlier work.
Another data set concerns the target S. cerevisiae Pnc1. The conditions noted are these: cited from earlier work.
Data set [6] has as its target nicotinamidase from Mycobacterium tuberculosis. The following applies: cited from earlier work.
Data set [7] has as its target T1, Pnc1. Put plainly: 15N kinetic isotope effect with substrates. The class given is biochemical, S. cerevisiae.
Data set [8] has as its target T1, Pnc1. Kind of data set: 13C kinetic isotope effect with substrates. Format: biochemical, S. cerevisiae.
The subject of data set [9] is nicotinamidase from M. lysodeikticus. The conditions noted are these: cited from earlier work. The source holds these as a separate data set.
Data set [10] concerns the target T1, Pnc1. Kind of data set: Dependence of kcat on pH. The class given is biochemical, S. cerevisiae. The following applies: pH 4.5 to 10.5.
The next data set concerns yeast nicotinamidases. The following applies: previous reports; cited from earlier work.
The test system of data set [11] is nicotinamidase from S. cerevisiae. The conditions noted are these: cited from earlier work.
Data set [12] has as its system nicotinamidase from M. tuberculosis. The conditions noted are these: cited from earlier work.
Data set [13] deals with Pnc1 WT or mutant (Saccharomyces cerevisiae, UniProt P53184, C167A). Kind of data set: Steady-state kinetic parameters of Pnc1 mutants, enzyme-coupled assay. The class given is biochemical, S. cerevisiae. The conditions noted are these: substrate nicotinamide.
For data set [14], the system named is Pnc1 WT or mutant. Described as above. The conditions noted are these: substrate nicotinamide; for kcat: pH 7.5. Format: biochemical, S. cerevisiae.
In data set [15] the test system is Pnc1 WT or mutant. Kind of data set: 15N kinetic isotope effect of Pnc1 mutants. Format: biochemical, S. cerevisiae. The following applies: substrate nicotinamide, pH 7.5.
For data set [16], the target named is Pnc1 WT or mutant (Saccharomyces cerevisiae, UniProt P53184, K122R). Kind of data set: 13C kinetic isotope effect of Pnc1 mutants. Format: biochemical, S. cerevisiae. The following applies: substrate nicotinamide.
Data set [17] has as its system Pnc1 WT or mutant. Put plainly: 13C kinetic isotope effect of Pnc1 mutants. Format: biochemical, S. cerevisiae. The following applies: substrate nicotinamide, pH 7.5.

T1 sequence (P53184 whole entry): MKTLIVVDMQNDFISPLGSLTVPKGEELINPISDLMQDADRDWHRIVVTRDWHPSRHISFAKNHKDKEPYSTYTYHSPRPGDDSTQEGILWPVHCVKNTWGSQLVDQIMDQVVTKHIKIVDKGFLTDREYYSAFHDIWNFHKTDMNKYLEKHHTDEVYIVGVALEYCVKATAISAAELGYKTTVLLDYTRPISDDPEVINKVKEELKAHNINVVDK

Take `NC(=O)c1ccccc1` [benzamide]: on Pnc1 [1], the “fold decreased kcat/Km compared to nicotinamide” value came to 200 fold and the “fold lower kcat compared to nicotinamide” value amounted to 78 fold. Moreover, the “fold slower hydrolysis rate compared to nicotinamide” value in data set [2] came to 7 fold. Further, the “pseudo-first-order rate of hydrolysis in basic solutions” value in [3] is 0.00408 h⁻¹.
On to `O=Cc1cccnc1` [nicotinaldehyde], for which the Ki is 940 ± 350 nM on Pnc1 [4], 18 nM in data set [5], 1400 nM at S. cerevisiae Pnc1 and 290 nM in data set [6]. For the same molecule, the “Ki fold below the Km value of nicotinamide” value on Pnc1 [4] (vs Km 9.6 µM for nicotinamide) was 10 fold.
`Cc1cncc(C(N)=O)c1` [5-methylnicotinamide]: the “fold higher Km compared to nicotinamide” value on Pnc1 [1] was found to be 6 fold. For the same molecule, on Pnc1 [7] (on V/K, pH 7.5), the “15N KIE” value turned out to be 1.0151 ± 0.0009. The “13C KIE” value at Pnc1 [8] (on V/K, pH 7.5) is 1.0269 ± 0.0037. The Km in [9] is 360 µM.
As to `NC(=O)c1cccnc1` [nicotinamide], at Pnc1 [1] (substrate of Pnc1, pH 7.5), the kcat came to 0.69 s⁻¹. Besides, the “15N KIE” value at Pnc1 [7] (as percent) was ~ 1.2% and 1.2%; on Pnc1 [7] (on V/K, pH 7.5), 1.0122 ± 0.0002. In addition, the “13C KIE” value is ~ 1.2% at Pnc1 [8] (as percent) and 1.0125 ± 0.0004 at Pnc1 [8] (on V/K, pH 7.5). Also, on Pnc1 [10], the “critical ionizations in kcat pH profile” value is “no critical ionizations”. Further, the “variation of kcat between the pH extremes” value on Pnc1 [10] is on record as 4 fold. The “pseudo-first-order rate of hydrolysis in basic solutions” value in data set [3] is 0.0301 h⁻¹. In addition, in the data set on yeast nicotinamidases, the Km was 6 to 10 µM.
`NC(=O)c1cnccn1` [pyrazinamide]: the “fold decreased kcat/Km compared to nicotinamide” value at Pnc1 [1] is 4.5 fold. Also, the “fold faster kcat compared to nicotinamide” value on Pnc1 [1] came out at 3.7 fold. Moreover, the “fold higher Km compared to nicotinamide” value at Pnc1 [1] is listed as 16 fold. For the same molecule, the “15N KIE” value on Pnc1 [7] (as percent) was determined as 2.3%; on Pnc1 [7] (on V/K, pH 7.5), 1.0231 ± 0.0007. Further, the “13C KIE” value came to 2.0% on Pnc1 [8] (as percent) and 1.0196 ± 0.0023 on Pnc1 [8] (on V/K, pH 7.5). Moreover, the Km in data set [11] is 200 µM; in data set [12], 300 µM.

B1: C167A (protein, UniProt P53184 1-216, looked up, variant C167A)
Nicotinamidase: MKTLIVVDMQNDFISPLGSLTVPKGEELINPISDLMQDADRDWHRIVVTRDWHPSRHISFAKNHKDKEPYSTYTYHSPRPGDDSTQEGILWPVHCVKNTWGSQLVDQIMDQVVTKHIKIVDKGFLTDREYYSAFHDIWNFHKTDMNKYLEKHHTDEVYIVGVALEYAVKATAISAAELGYKTTVLLDYTRPISDDPEVINKVKEELKAHNINVVDK
In the case of B1, the nicotinamidase activity entry with Pnc1 WT or mutant [13] is on record as “lost all detectable nicotinamidase activity”. Moreover, in the data set on Pnc1 WT or mutant [14], the kcat was below 0.0005 s⁻¹.

B2: K122R (protein, UniProt P53184 1-216, looked up, variant K122R)
Nicotinamidase: MKTLIVVDMQNDFISPLGSLTVPKGEELINPISDLMQDADRDWHRIVVTRDWHPSRHISFAKNHKDKEPYSTYTYHSPRPGDDSTQEGILWPVHCVKNTWGSQLVDQIMDQVVTKHIKIVDRGFLTDREYYSAFHDIWNFHKTDMNKYLEKHHTDEVYIVGVALEYCVKATAISAAELGYKTTVLLDYTRPISDDPEVINKVKEELKAHNINVVDK
Consider B2, for which, in the data set with Pnc1 WT or mutant [14], the “fold lower kcat compared to Pnc1 WT” value amounted to 767 fold and the kcat came out at 0.0009 ± 0.0002 s⁻¹. Also, the “15N KIE” value in the data set on Pnc1 WT or mutant [15] is reported as 1.0127 ± 0.0003. Moreover, the “13C effect higher than wild-type enzyme” value with Pnc1 WT or mutant [16] is ~ 0.4%. Also, the “13C KIE” value in the data set on Pnc1 WT or mutant [17] came out at 1.0172 ± 0.0001.

Broadly, the Ki is a measure of affinity in units of concentration, obtained from inhibition or displacement. For orientation: Km means the concentration of substrate that gives half-maximal velocity. Usually kcat stands for the number of substrate molecules converted per active site and unit of time at saturation.
